According to ChEMBL document CHEMBL5143628, “Enteroviral replication inhibition by N-Alkyl triazolopyrimidinone derivatives through a non-capsid binding mode” (Bioorg Med Chem Lett, 2022):
Activity calls are given as the source filed them. The rule behind the calls is not given here.

What was measured:
rhinovirus B14 [1] = test: Antiviral activity against Human rhinovirus B14 infected in human H1-HeLa cells assessed as reduction in viral titre at early stage at 10 uM pretreated for 1 hr followed by viral infection and measured after 9 hrs by time-of-addition assay; format: functional, organism-based
rhinovirus B14 [2] = test: Antiviral activity against Human rhinovirus B14 infected in human H1-HeLa cells assessed as reduction in viral replication by measuring viral titre measured 3 days post infection by crystal violet staining based plaque reduction assay; format: functional, organism-based; conditions: dose 1.1-30 µM, time 3.0 day, DDE = dose-dependent effect
rhinovirus A21 = test: Antiviral activity against Human rhinovirus A21 infected in human H1-HeLa cells assessed as reduction in virus induced cytopathic effect incubated for 3 days by MTT assay; format: functional, organism-based
rhinovirus B14 [3] = test: Antiviral activity against Human rhinovirus B14 infected in human H1-HeLa cells assessed as reduction in virus induced cytopathic effect incubated for 3 days by MTT assay; format: functional, organism-based
[4] = (§1) Cytotoxicity against human H1-HeLa cells assessed as reduction in cell viability by MTT assay; format: toxicity, cell-based; conditions: H1-HeLa cells
[5] = Antiviral activity against Human rhinovirus A71 infected in human H1-HeLa cells assessed as reduction in virus induced cytopathic effect incubated for 3 days by MTT assay; format: functional, cell-based
[6] = Selectivity index, ratio of CC50 for cytotoxicity against human H1-HeLa cells to EC50 for antiviral activity against Human rhinovirus B14 infected in human H1-HeLa cells; format: toxicity, cell-based; conditions: for selectivity ratio: H1-HeLa cells, read-out: Ratio CC50/EC50
[7] = Selectivity index, ratio of CC50 for cytotoxicity against human H1-HeLa cells to EC50 for antiviral activity against Human rhinovirus A21 infected in human H1-HeLa cells; format: toxicity, cell-based; conditions: for selectivity ratio: H1-HeLa cells, read-out: Ratio CC50/EC50
[8] = Selectivity index, ratio of CC50 for cytotoxicity against human H1-HeLa cells to EC50 for antiviral activity against Human rhinovirus A71 infected in human H1-HeLa cells; format: toxicity, cell-based; conditions: for selectivity ratio: H1-HeLa cells, read-out: Ratio CC50/EC50
Coxsackievirus B1 = test: Antiviral activity against Human coxsackievirus B1 infected in human H1-HeLa cells assessed as reduction in virus induced cytopathic effect incubated for 2 days by MTT assay; format: functional, organism-based; conditions: Enterovirus B, 48 h
Poliovirus 3 = test: Antiviral activity against Human poliovirus 3 infected in human H1-HeLa cells assessed as reduction in virus induced cytopathic effect incubated for 2 days by MTT assay; format: functional, organism-based; conditions: Enterovirus C, 48 h
rhinovirus A2 = test: Antiviral activity against Human rhinovirus 2 infected in human H1-HeLa cells assessed as reduction in virus induced cytopathic effect incubated for 3 days by MTT assay; format: functional, organism-based; conditions: Rhinovirus A, 72 h
rhinovirus A16 = test: Antiviral activity against Human rhinovirus 16 infected in human H1-HeLa cells assessed as reduction in virus induced cytopathic effect incubated for 3 days by MTT assay; format: functional, organism-based; conditions: Rhinovirus A, 72 h
Rhinovirus A = test: Antiviral activity against Rhinovirus A33 infected in human H1-HeLa cells assessed as reduction in virus induced cytopathic effect incubated for 3 days by MTT assay; format: functional, cell-based; conditions: Rhinovirus A, 33, H1-HeLa, 72 h
rhinovirus B86 = test: Antiviral activity against Human rhinovirus 86 infected in human H1-HeLa cells assessed as reduction in virus induced cytopathic effect incubated for 3 days by MTT assay; format: functional, organism-based; conditions: Rhinovirus B, 72 h
Rhinovirus B = test: Antiviral activity against Rhinovirus B91 infected in human H1-HeLa cells assessed as reduction in virus induced cytopathic effect incubated for 3 days by MTT assay; format: functional, organism-based; conditions: Rhinovirus B, 91, H1-HeLa, 72 h
rhinovirus A1B = test: Antiviral activity against Rhinovirus A1B infected in human H1-HeLa cells assessed as reduction in virus induced cytopathic effect incubated for 3 days by MTT assay; format: functional, organism-based; conditions: Rhinovirus A, 72 h
rhinovirus B14 [9] = test: Antiviral activity against Human rhinovirus B14 infected in human H1-HeLa cells assessed as reduction in viral titre at 1 uM pretreated for 1 hr followed by viral infection and measured immediately by time-of-addition assay; format: functional, organism-based
rhinovirus B14 [10] = test: Antiviral activity against Human rhinovirus B14 infected in human H1-HeLa cells assessed as reduction in viral replication by measuring viral production measured 3 days post infection by crystal violet staining based plaque reduction assay; format: functional, organism-based; conditions: dose 0.4-30 µM, time 3.0 day, DDE = dose-dependent effect
H1-HeLa = test: as §1; format: toxicity, cell-based; conditions: h1-hela

Structure (SMILES) | EC50 (rhinovirus A21; Rhinovirus A, H1-HeLa, 72 h) | EC50 (rhinovirus B14 [3]; Rhinovirus B, H1-HeLa, 72 h) | CC50 [4] | EC50 ([5]; Rhinovirus A, H1-HeLa, 72 h) | selectivity ratio [6] | selectivity ratio [8] | also measured
CCCn1c(=O)c2c3c(sc2n2cnnc12)CC(C(C)(C)C)CC3 (stereo in doubt) | – | – | – | – | – | – | Activity (rhinovirus B14 [1]): Active; Activity (rhinovirus B14 [2]): Dde
CC(C)CCn1c(=O)c2c3c(sc2n2cnnc12)CC(C(C)(C)C)CC3 (centres undefined) | > 100000 nM | > 100000 nM | > 100000 nM | > 100000 nM | – | – | –
CC(C)(C)C1CCc2c(sc3c2c(=O)n(-c2ccccc2)c2nncn32)C1 (centres undefined) | 5100 nM | 5000 nM | 18700 nM | 2300 nM | 3.7 | 8.1 | selectivity ratio [7]: 3.6
CC(C)(C)C1CCc2c(sc3c2c(=O)n(C2CCCC2)c2nncn32)C1 (centres undefined) | > 100000 nM | > 100000 nM | > 100000 nM | 12100 nM | – | > 8.2 | –
CCCn1c(=O)c2c3c(sc2n2cnnc12)CC(C(C)(C)C)CC3 (stereo in doubt; 2c-2) | – | – | – | – | – | – | EC50 (rhinovirus A21; h1-hela): 7700 nM; Ratio CC50/EC50 [6]: > 12.8; EC50 (rhinovirus B14 [3]; h1-hela): 7800 nM; EC50 ([5]; h1-hela): 1900 nM; Ratio CC50/EC50 [7]: > 12.9; Ratio CC50/EC50 [8]: > 52.6
CCCCn1c(=O)c2c3c(sc2n2cnnc12)CC(C(C)(C)C)CC3 (centres undefined) | > 100000 nM | 2200 nM | > 100000 nM | 2000 nM | > 45.4 | > 50 | EC50 (Coxsackievirus B1): > 22900 nM; EC50 (Poliovirus 3): 2550 nM
Cc1cc(CCCOc2c(C)cc(-c3noc(C(F)(F)F)n3)cc2C)on1 [PLECONARIL] | 170 nM | 200 nM | 20800 nM | 17 nM | 145 | 1700 | EC50 (rhinovirus A2): 80 nM; EC50 (rhinovirus A16): 510 nM; EC50 (Rhinovirus A): 450 nM; EC50 (rhinovirus B86): 290 nM; EC50 (Rhinovirus B): 1400 nM; EC50 (rhinovirus A1B): 240 nM; Activity (rhinovirus B14 [9]): Active; Activity (rhinovirus B14 [10]): Dde; selectivity ratio [7]: 161
CCCn1c(=O)c2c3c(sc2n2cnnc12)CC(C(C)(C)C)CC3 (stereo in doubt; 2c-1) | – | – | – | – | – | – | EC50 (rhinovirus A21; h1-hela): 3500 nM; Ratio CC50/EC50 [6]: > 27; EC50 (rhinovirus B14 [3]; h1-hela): 3700 nM; CC50 (H1-HeLa): > 100000 nM; EC50 ([5]; h1-hela): 1700 nM; Ratio CC50/EC50 [7]: > 28.5; Ratio CC50/EC50 [8]: > 58.8
